Measurements: patent US20100015635A1, “IMMOBILISATION OF FLUORESCENT PROTEINS” (priority 2006, published 2010)

Legend:
[1] = Control: emission of mixture of BSA-Atto390 and Hc-Cy5 during deoxygenation, excitation 280 nm; conditions: solution mixture
Description: To rule out that the changes in dye fluorescence might be due to a specific quenching by molecular oxygen, a mixture of Atto390 labelled bovine serum albumin (BSA) and Hc-Cy5 was deoxygenated while recording emission spectra from 300 to 750 nm upon excitation at 280 nm. The applied labels emit at different wavelengths, therefore permitting the simultaneous observation of each individual conjugate. […] With the labels exchanged, the reverse was observed. From this it can be concluded that the variations in label fluorescence correlate with the binding of O2 to the labelled hemocyanin. […] Similar observations were made for Ty.

[2] = Sol-gel controls: O2 dependence of non-binding species, leaking, storage stability; format: physicochemical; conditions: individually encapsulated in a sol-gel matrix
Description: [19]. The buffer solution surrounding the quartz slides was checked for leaking of the labeled protein out of the matrix. […] As already reported, the mechanical strength of silica gels often prevents the leaking of biomolecules. 3) Tryptophan fluorescence has been used to study stability and flexibility of proteins upon entrapment.

[3] = Switching ratio of Trp/label emission of tyrosinase (Ty) on deoxygenation, excitation 280 nm; design: species or system Streptomyces antibioticus; conditions: emission of Trp or of N-terminal dye label on Ty, excitation at 280 nm
Experimental: To illustrate this Example, Ty from the soil bacterium Streptomyces antibiotius was selected.
S.c. Ty contains 12 Trp residues on a total of 271 amino-acids (4.4% against ˜1% on average), which cluster around the type-3 centre. […] In an air-saturated solution (0.26 mM O2), practically all protein occurs in the oxygenated form (see FIG. 2A). Upon complete deoxygenation, the Trp fluorescence increases by a factor of 2.7 while the shape and position of the emission band remain unchanged. For the C.a. Hc samples, this factor, further referred to as the switching ratio SR (=Fred/Foxy), amounts to 2.2.
Both Hc and Ty were labelled at their N-terminus with each of the five dyes. […] The peak around […] is a second-order artefact. In a solution containing dye and protein separately (not linked) this peak (280 nm) was missing. The second order artefact is due to higher orders of light being allowed through the monochromator. The artefact can be excluded by placing a cut-off filter in the detection path that allows through light only beyond a certain wavelength (for example […]).
In all cases, an increase in label emission was observed after deoxygenating the sample (FIG. 4A). […] The Cy3 fluorescence is specific for the labelled protein, while the Trp emission derives mainly (>95%) from unlabelled Hc. […]

For “BSA-Atto390: Atto390 labelled bovine serum albumin, control”, the “dependence of label emission on [O2]” value [1] was “does not”.

With “bovine serum albumin labeled with Cy5: BSA labeled with Cy5 encapsulated in a sol-gel matrix, control” the “dependence of fluorescence intensity on [O2]” value [2] was “neither unreacted Cy5 nor bovine serum albumin labeled with Cy5, both individually encapsulated in a sol-gel matrix, depended on the [O2]”.

B1: Ty: tyrosinase from the soil bacterium Streptomyces antibiotius (protein, UniProt P07524 2-273, looked up)
Tyrosinase: TVRKNQASLTAEEKRRFVAALLELKRTGRYDAFVTTHNAFILGDTDNGERTGHRSPSFLPWHRRFLLEFERALQSVDASVALPYWDWSADRSTRSSLWAPDFLGGTGRSRDGQVMDGPFAASAGNWPINVRVDGRTFLRRALGAGVSELPTRAEVDSVLAMATYDMAPWNSGSDGFRNHLEGWRGVNLHNRVHVWVGGQMATGVSPNDPVFWLHHAYIDKLWAEWQRRHPSSPYLPGGGTPNVVDLNETMKPWNDTTPAALLDHTRHYTFDV
With B1 the “SR Tyr (switching ratio Fred/Foxy)” value [3] was 2.7.
